Laboratory results reported in patent publication US20220000841A1, “INHIBITORS OF METALLO-BETA-LACTAMASES” (CENTRE NATIONAL DE LA RECHERCHE SCIENTIFIQUE, priority 2018, published 2022).
Read-outs that look alike come from different tables or passages of the source.

What was measured:
[1] = test system: K. pneumoniae S1-002 (blaVIM-4+); experiment: Broth microdilution MIC of meropenem in absence and presence of MBL inhibitor, S1-002; type: cell-based; details: MBL inhibitor fixed at 32 μg/ml, Mueller-Hinton broth, duplicate
Experimental: (§3) This method was performed in agreement with the CLSI recommendations (document M07-A10, 2015, “Methods for Dilution Antimicrobial Susceptibility Tests for Bacteria That Grow Aerobically”).
(§4) MIC values of meropenem (MEM) were determined in duplicate in Mueller-Hinton broth as recommended by CLSI (document M07-A10, 2015), in absence and presence of a fixed concentration of MBL inhibitor (32 μg/ml).

[2] = test system: K. pneumoniae SI-001 (blaVIM-1+); experiment: Broth microdilution MIC of meropenem in absence and presence of MBL inhibitor, SI-001; type: cell-based; details: MBL inhibitor fixed at 32 μg/ml, Mueller-Hinton broth, duplicate
Experimental: as §3, §4

[3] = biological target: IMP-1 (Serratia marcescens, UniProt P52699); experiment: Enzymatic assay for determination of inhibition constants, reporter substrate method, purified IMP-1; type: biochemical; details: for Ki: isolated MBL, competitive inhibition model;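 for all read-outs here: purified IMP-1 (1-70 nM) hydrolysing a reporter substrate, initial rates followed as absorbance change at 260, 300 or 482 nm in 50 mM HEPES pH 7.5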
[4] = biological target: VIM-2 (Escherichia coli, UniProt Q5U7L7); experiment: Enzymatic assay for determination of inhibition constants, reporter substrate method, purified VIM-2; type: biochemical; details: for % inhibition VIM-2: at 100 μM (maximal tested concentration);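 for all read-outs here: purified VIM-2 hydrolysing a reporter substrate (imipenem, meropenem, cefotaxime or nitrocefin), reaction rate read as absorbance change, HEPES 50 mM at pH 7.5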
[5] = biological target: VIM-1 (Pseudomonas aeruginosa, UniProt A0A0F7KYQ8); experiment: Enzymatic assay for determination of inhibition constants, reporter substrate method, purified VIM-1; type: biochemical; details: for Ki: isolated MBL, competitive inhibition model;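 for all read-outs here: initial hydrolysis rates of a reporter β-lactam (imipenem, meropenem, cefotaxime or nitrocefin) followed by absorbance change, purified enzyme at 1–70 nM in 50 mM HEPES pH 7.5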
Experimental: (§5) The reaction rate was measured as the variation of absorbance observed upon substrate hydrolysis in a UV-Vis spectrophotometer or microplate reader at a wavelength of 300 nm (imipenem, meropenem), 260 nm (cefotaxime) or 482 nm (nitrocefin) in 50 mM HEPES buffer (pH 7.5) and in the presence of a purified MBL enzyme (such as VIM-1, VIM-2, VIM-4, NDM-1 and IMP-1, at a final concentration ranging 1-70 nM).
(§6) The inhibition constants (Ki) were determined on the basis of a model of competitive inhibition by analyzing the dependence of the ratio v0/vi (v0, hydrolysis velocity in the absence of inhibitor; vi, hydrolysis velocity in the presence of inhibitor) as a function of [I] as already described [Docquier J. D., Lamotte-Brasseur J., Galleni M., Amicosante G., Frère J. M., Rossolini G. M. (2003) J. Antimicrob. […] The slope of the plot of v0/vi vs [I], which corresponds to Km^S/(Km^S+[S])Ki (where Km^S is the Km value of the reporter substrate and [S] its concentration in the reaction mixture) and allowed the calculation of the Ki value. Alternatively, a Dixon plot analysis was carried out, by measuring the initial hydrolysis rates in the presence of variable concentrations of inhibitor and substrate.

[6] = biological target: NDM-1 (Klebsiella pneumoniae, UniProt C7C422); experiment: Enzymatic assay for determination of inhibition constants, reporter substrate method, purified NDM-1; type: biochemical; details: for Ki: isolated MBL, competitive inhibition model; for % inhibition NDM-1: at 100 μM (maximal tested concentration);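 for all read-outs here: purified enzyme activity followed as absorbance change from reporter substrate hydrolysis on a UV-Vis spectrophotometer or plate reader, 50 mM HEPES pH 7.5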
Experimental: as §5, §6

[7] = test system: E. coli AS19 [pLBII-VIM2]; experiment: microbe, parasite or virus in culture; type: cell-based, Escherichia coli; details: for zone of inhibition at 40 µg/disc: Escherichia coli, read-out: Inhibition zone diameter AS 19, difference between measured diameter and diameter without compound
Experimental: (§1) A] A disk-diffusion test in which the inhibitor was added (40-320 μg) to a disk containing a defined amount of a β-lactam antibiotic (such as 30 μg cefoxitin) was used to evaluate the antimicrobial activity (corresponding to the diameter of the growth inhibition zone, expressed in mm) of the combination when compared of that of the antibiotic alone.
(§2) These tests were performed on isogenic laboratory strains (such as Escherichia coli DH5a or XL-1) producing a defined MBL after its transformation with a pLB-II plasmid derivative (such as pLBII-VIM-2) [Borgianni L., Vandenameele J., Matagne A., Bini L., Bonomo R. A., Frere J. M., Rossolini G. M., Docquier J. D. (2010) Antimicrob. Agents Chemother. 54, 3197-3204] harbouring a cloned gene encoding the functional metallo-β-lactamase. Alternatively, hyperpermeable strains (such as Escherichia coli AS19) were used instead of Escherichia coli DH5α or XL-1.

[8] = biological target: VIM-4 (Pseudomonas aeruginosa, UniProt Q8KRJ3); experiment: Enzymatic assay for determination of inhibition constants, reporter substrate method, purified VIM-4; type: biochemical; details: at 100 μM (maximal tested concentration);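 note: purified VIM-4 (1-70 nM) in 50 mM HEPES pH 7.5, reporter substrate hydrolysis rate tracked by absorbance change (nitrocefin 482 nm, imipenem or meropenem 300 nm, cefotaxime 260 nm)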
[9] = test system: E. coli LZ2310[pLBII-VIM2] (E. coli K12 ΔnorE ΔmdfA N43 acrA1); type: cell-based, Escherichia coli; details: EDTA 220 μg added to cefoxitin disk (30 μg); cefoxitin alone 14 mm
Experimental: as §1, §2

[10] = Cell membrane integrity assay, LDH release, compound cytotoxicity; type: cell-based; details: human, HeLa cells, 0.001 to 1.2 mM, read-out: IC50, compound concentration inducing 50% cytotoxicity (LDH release)
Experimental: Selected compounds were tested for their ability to induce the lysis of eukaryotic cells by measuring the release of lactate dehydrogenase enzyme (LDH) from HeLa cells, after incubating such cells for 24 hours (37° C., 5% CO2) in Dulbecco's modified Eagle medium supplemented with 10% fetal bovine serum, 4.5 mg/ml glucose and 2 mM L-glutamine in the absence and presence of the compound at concentrations ranging from 0.001 to 1.2 mM. LDH activity was determined using commercial kits (such as the CytoTox 96® Non-Radioactive Cytotoxicity Assay, Promega, Madison, Wis., U.S.A.) in the samples, containing HeLa cells incubated with the various concentrations of the assayed compound or with the solvent or buffer used to resuspend such compounds (vehicle control).
Further controls included samples containing the medium only (medium control) or in which cell lysis was induced by the addition of 9% Triton X-100 (maximum LDH release control). The percentage of cytotoxicity was computed as 100×(Sample LDH release)/(maximum LDH release). The variation of the percentage of cytotoxicity is usually dependent on the compound concentration and allowed to compute an IC50 value, corresponding to the compound concentration inducing 50% cytoxicity.

[11] = isolated MBL, competitive inhibition model, read-out: Ki VIM-2
[12] = as listed in Table 2, read-out: Ki on VIM-2
[13] = at 100 μM (maximal tested concentration)

Chain of NDM-1 (C7C422 29-270, looked up, species assumed): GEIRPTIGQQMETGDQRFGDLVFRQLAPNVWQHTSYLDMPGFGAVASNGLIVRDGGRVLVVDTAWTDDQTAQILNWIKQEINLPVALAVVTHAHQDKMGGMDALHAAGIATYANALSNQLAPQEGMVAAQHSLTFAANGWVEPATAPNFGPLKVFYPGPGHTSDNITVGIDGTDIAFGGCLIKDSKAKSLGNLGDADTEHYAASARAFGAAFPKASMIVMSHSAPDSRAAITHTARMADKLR
Chain of IMP-1 (P52699 19-246, looked up, species assumed): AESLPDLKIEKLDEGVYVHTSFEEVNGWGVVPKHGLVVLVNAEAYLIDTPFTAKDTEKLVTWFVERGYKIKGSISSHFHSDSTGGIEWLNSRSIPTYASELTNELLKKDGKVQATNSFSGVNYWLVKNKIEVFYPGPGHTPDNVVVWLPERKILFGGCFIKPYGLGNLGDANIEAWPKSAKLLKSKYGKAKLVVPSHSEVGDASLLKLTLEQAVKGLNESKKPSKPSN

Structure (SMILES) | MIC potentiation of meropenem (x.log2 dilutions), K. pneumoniae S1-002 (blaVIM-4+) [1] | MIC potentiation of meropenem (x.log2 dilutions), K. pneumoniae SI-001 (blaVIM-1+) [2] | Ki [3] | Ki [4, 11] | melting point | Ki [5] | Ki [6] | % inhibition IMP-1 ([3]; at 200 μM (maximal tested concentration)) | Ki [4, 12] | zone of inhibition at 40 µg/disc [7] | % inhibition VIM-4 [8] | Inhibition zone diameter LZ 2310 [9] | Inhibition zone diameter AS 19 ([7]; EDTA 220 μg added to cefoxitin disk (30 μg), cefoxitin alone 16 mm) | IC50 at 24 h [10] | % inhibition VIM-2 [4] | % inhibition VIM-1 [5, 13] | % inhibition NDM-1 [6] | % inhibition IMP-1 [3, 13]
S=c1[nH]nc(-c2ccccc2)n1CCSCc1ccccc1 [Compound 33, 4-[2-(benzylsulfanyl)ethyl]-3-phenyl-4,5-dihydro-1H-1,2,4-triazole-5-thione] | 2 log2 dilutions | 3 log2 dilutions | > 100 µM | 1000 to 10000 nM | 108 to 109 °C | < 1 µM | 1 to 10 µM |  |  |  |  |  |  |  |  |  |  | 
O=C(O)CCCCn1c(-c2ccccc2)n[nH]c1=S [Compound 15, 5-(3-phenyl-5-sulfanylidene-4,5-dihydro-1H-1,2,4-triazol-4-yl)pentanoic acid] |  |  |  | 1000 to 10000 nM | 176 to 177 °C | > 100 µM | > 100 µM | 60% at 200 μM | 1000 to 10000 nM | 3 mm | 85% at 100 μM |  |  |  |  |  |  | 
COc1ccc(O)c(-c2n[nH]c(=S)n2CCc2ccccc2C(=O)O)c1 [Compound 4, 2-{2-[3-(2-hydroxy-5-methoxyphenyl)-5-sulfanylidene-4,5-dihydro-1H-1,2,4-triazol-4-yl]ethyl}benzoic acid] |  |  | > 100 µM | < 1000 nM | 88 to 89 °C | > 100 µM | > 100 µM |  | < 1000 nM | 4 mm | 80% at 100 μM |  |  |  |  |  |  | 
O=C(O)CN(CCN(CC(=O)O)CC(=O)O)CC(=O)O [EDTA, reference compound] |  |  |  |  |  |  |  |  |  |  |  | 30 mm | 26 mm |  |  |  |  | 
Cc1ccccc1-c1n[nH]c(=S)n1CCc1ccccc1C(=O)O [Compound 14, 2-{2-[3-(2-methylphenyl)-5-sulfanylidene-4,5-dihydro-1H-1,2,4-triazol-4-yl]ethyl}benzoic acid] |  |  | > 100 µM | < 1000 nM | 180 to 181 °C | 1 to 10 µM | > 100 µM |  | < 1000 nM | 3 mm | 80% at 100 μM |  |  | > 1.2 mM |  |  |  | 
O=C(O)C(CCCn1c(-c2ccccc2)n[nH]c1=S)NCc1cccc(O)c1O (stereo not shown) [Compound 67] | 2 log2 dilutions | 2 log2 dilutions | > 100 µM |  |  |  | > 100 µM |  |  |  | 60% at 100 μM |  |  |  | 55% at 100 μM | 70% at 100 μM |  | 
O=C(O)c1ccccc1CCn1c(-c2ccco2)n[nH]c1=S [Compound 12, 2-{2-[3-(furan-2-yl)-5-sulfanylidene-4,5-dihydro-1H-1,2,4-triazol-4-yl]ethyl}benzoic acid] |  |  | > 100 µM | < 1000 nM | 210 to 211 °C |  | > 100 µM |  | < 1000 nM | 3 mm | 70% at 100 μM |  |  | > 1.2 mM |  |  |  | 
O=C(O)c1ccccc1CCn1c(-c2cccs2)n[nH]c1=S [Compound 13, 2-{2-[3-(thiophen-2-yl)-5-sulfanylidene-4,5-dihydro-1H-1,2,4-triazol-4-yl]ethyl}benzoic acid] |  |  | > 100 µM | 1000 to 10000 nM | 195 to 196 °C | > 100 µM | > 100 µM |  | 1000 to 10000 nM | 4 mm |  |  |  | > 1.2 mM |  |  |  | 
O=C(O)C(CCCn1c(-c2ccccc2)n[nH]c1=S)N(Cc1c[nH]cn1)Cc1c[nH]cn1 (stereo not shown) [Compound 69, 2-[Bis(1H-imidazol-5-ylmethyl)amino]-5-(3-phenyl-5-sulfanylidene-4,5-dihydro-1H-1,2,4-triazol-4-yl)pentanoic acid] | ≥4 log2 dilutions | ≥4 log2 dilutions | > 100 µM | < 1000 nM |  | < 1 µM |  |  |  |  |  |  |  |  |  |  | 85% at 100 μM | 
O=C(O)CCSCCn1c(-c2ccccc2)n[nH]c1=S [Compound 66, [2-(3-Phenyl-5-thioxo-1,4-dihydro-1,2,4-triazol-4-yl)ethylthio]propionic acid] | ≥4 log2 dilutions | 3 log2 dilutions |  | 1000 to 10000 nM |  | 1 to 10 µM |  |  |  |  |  |  |  |  |  |  | 60% at 100 μM | 65% at 100 μM
O=C(O)C(CSCCn1c(-c2ccccc2)n[nH]c1=S)c1ccccc1 (stereo not shown) [Compound 78, 2-Phenyl-3-[2-(3-phenyl-5-thioxo-1,4-dihydro-1,2,4-triazol-4-yl)ethylthio]-propionic acid] | 2 log2 dilutions | 3 log2 dilutions | 10 to 100 µM | < 1000 nM |  | < 1 µM | 1 to 10 µM |  |  |  |  |  |  |  |  |  |  | 
O=C(O)C(CCCn1c(-c2ccccc2)n[nH]c1=S)N(Cc1ccccc1)Cc1ccccc1 (stereo not shown) [Compound 68, 2-[Bis(phenylmethyl)amino]-5-(3-phenyl-5-sulfanylidene-4,5-dihydro-1H-1,2,4-triazol-4-yl)pentanoic acid] | 2 log2 dilutions | 2 log2 dilutions | > 100 µM |  |  | > 100 µM | > 100 µM |  |  |  | 65% at 100 μM |  |  |  | 65% at 100 μM |  |  | 
